The target in the assay is T1, human recombinant HPK1 (Homo sapiens, UniProt Q92918).
T1 construct: purchased BPS Bioscience
Put plainly: Inhibitory activity against human recombinant HPK1 (TR-FRET). To be noted: ULight-p70S6K peptide, ATP at Km, room temperature, 1 hour, 0.32 to 1000 nM compound. In kind it is biochemical. The method, boiled down:
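IC50 classes A–D use 10, 50 and 100 nM cut-offs, derived from TR-FRET signal inhibition relative to DMSO controls. Human recombinant HPK1 phosphorylated ULight-p70S6K peptide at Km ATP for 1 h, room temperature, pH 7.4; test range 0.32–1000 nM final, detection with Eu-labelled antibody after EDTA quench.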

pIC50: −log10 of the molar value. Structures can show the parent of a compound that is named as a salt.

Broadly, the pIC50 is −log10 of the IC50, conventionally taken in molar units.

T1 sequence (Q92918 whole entry): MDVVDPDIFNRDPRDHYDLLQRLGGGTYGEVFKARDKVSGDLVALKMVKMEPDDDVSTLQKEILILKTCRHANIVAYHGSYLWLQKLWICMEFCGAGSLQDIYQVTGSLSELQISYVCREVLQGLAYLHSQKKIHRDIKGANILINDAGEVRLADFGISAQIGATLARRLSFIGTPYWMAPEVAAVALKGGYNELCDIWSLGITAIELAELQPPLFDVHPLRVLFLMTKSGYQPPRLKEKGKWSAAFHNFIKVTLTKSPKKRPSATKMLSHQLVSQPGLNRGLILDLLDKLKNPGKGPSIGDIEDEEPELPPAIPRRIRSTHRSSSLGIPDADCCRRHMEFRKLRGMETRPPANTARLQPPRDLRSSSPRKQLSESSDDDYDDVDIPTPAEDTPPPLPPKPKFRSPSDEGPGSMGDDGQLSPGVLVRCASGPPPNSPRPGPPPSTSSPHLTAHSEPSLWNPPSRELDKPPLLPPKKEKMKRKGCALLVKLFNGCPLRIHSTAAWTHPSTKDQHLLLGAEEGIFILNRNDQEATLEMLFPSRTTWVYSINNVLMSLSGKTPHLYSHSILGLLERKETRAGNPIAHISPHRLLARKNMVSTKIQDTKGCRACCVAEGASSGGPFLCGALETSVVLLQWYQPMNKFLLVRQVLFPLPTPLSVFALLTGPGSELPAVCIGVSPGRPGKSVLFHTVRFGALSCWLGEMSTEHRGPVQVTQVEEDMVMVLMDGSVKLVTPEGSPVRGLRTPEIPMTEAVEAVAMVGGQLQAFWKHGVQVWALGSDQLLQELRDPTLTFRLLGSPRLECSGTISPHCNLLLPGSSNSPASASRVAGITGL

In the case of `COc1cccc(F)c1-c1nccc(Nc2cc(N3CCC[C@H](N)C3)c(-c3cnn(C4CCNCC4)c3)cn2)n1` [Example 283, (S)-N-(4-(3-aminopiperidin-1-yl)-5-(1-(piperidin-4-yl)-1H-pyrazol-4-yl)pyridin-2-yl)-2-(2-fluoro-6-methoxyphenyl)pyrimidin-4-amine hydrochloride], the pIC50 was at least 8.00. In the case of `COc1cccc(F)c1-c1nccc(Nc2cc(N(C)C3CCC(O)CC3)c(-c3cnn(C(F)F)c3)cn2)n1` [Example 214, (1S,4S)-4-((5-(1-(difluoromethyl)-1H-pyrazol-4-yl)-2-((2-(2-fluoro-6-methoxyphenyl)pyrimidin-4-yl)amino)pyridin-4-yl)(methyl)amino)cyclohexan-1-ol] it was at least 8.00. In the case of `COc1cccc(F)c1-c1nccc(Nc2cc(N3CCC[C@H](N)C3)c(C#Cc3cnn(CC(F)F)c3)cn2)n1` [Example 165, (S)-N-(4-(3-aminopiperidin-1-yl)-5-((1-(2,2-difluoroethyl)-1H-pyrazol-4-yl)ethynyl)pyridin-2-yl)-2-(2-fluoro-6-methoxyphenyl)pyrimidin-4-amine hydrochloride] it was at least 8.00.

For `COc1cccc(F)c1-c1nc(Nc2cc(N3CCC[C@H](O)C3)c(-c3cnn(CC(F)(F)F)c3)cn2)ccc1C(N)=O` [Example 143, 2-(2-fluoro-6-methoxyphenyl)-6-((4-((S)-3-hydroxypiperidin-1-yl)-5-(1-(2,2,2-trifluoroethyl)-1H-pyrazol-4-yl)pyridin-2-yl)amino)nicotinamide], the pIC50 was at least 8.00. For `COc1cccc(F)c1-c1nccc(Nc2cc(N3CCC[C@@H](C(N)=O)C3)c(-c3cnn(C4CCOCC4)c3)cn2)n1` [Example 51, (R)-1-(2-((2-(2-fluoro-6-methoxyphenyl)pyrimidin-4-yl)amino)-5-(1-(tetrahydro-2H-pyran-4-yl)-1H-pyrazol-4-yl)pyridin-4-yl)piperidin-3-carboxamide], the pIC50 was 7.00 to 7.30. In the case of `COc1cccc(F)c1-c1nc(Nc2cc(N3CCC[C@H](O)C3)c(-c3cnn(C4CCOCC4)c3)cn2)ccc1F` [Example 40, (3S)-1-(2-((5-fluoro-6-(2-fluoro-6-methoxyphenyl)pyridin-2-yl)amino)-5-(1-(tetrahydro-2H-pyran-4-yl)-1H-pyrazol-4-yl)pyridin-4-yl)piperidin-3-ol] it was at least 8.00; in that of `COc1cc(F)cc(F)c1-c1nccc(Nc2cc(N3CC[C@@H](O)[C@H](N)C3)c(-c3cnn(C(F)F)c3)cn2)n1` [Example 213, (3R,4R)-3-amino-1-(2-((2-(2,4-difluoro-6-methoxyphenyl)pyrimidin-4-yl)amino)-5-(1-(difluoromethyl)-1H-pyrazol-4-yl)pyridin-4-yl)piperidin-4-ol hydrochloride], at least 8.00. In the case of `COc1cccc(F)c1-c1nccc(Nc2cc(N3CCC[C@H](N)C3)c(-c3cnn(CF)c3)cn2)n1` [Example 247, (S)-N-(4-(3-aminopiperidin-1-yl)-5-(1-(fluoromethyl)-1H-pyrazol-4-yl)pyridin-2-yl)-2-(2-fluoro-6-methoxyphenyl)pyrimidin-4-amine hydrochloride] it was at least 8.00. Regarding `COc1cccc(F)c1-c1nc(Nc2cc(N3CCC[C@H](N)C3)c(C#CC3CCOCC3)cn2)ccc1[N+](=O)[O-]` [Example 155, 4-((S)-3-aminopiperidin-1-yl)-N-(6-(2-fluoro-6-methoxyphenyl)-5-nitropyridin-2-yl)-5-((tetrahydro-2H-pyran-4-yl)ethynyl)pyridin-2-amine hydrochloride], the pIC50 is at least 8.00.

Regarding `COc1cccc(F)c1-c1nc(Nc2cc(N3CCC[C@H](O)C3)c(-c3cnn(C4CCOCC4)c3)cn2)ccc1N` [Example 177, (3S)-1-(2-((5-amino-6-(2-fluoro-6-methoxyphenyl)pyridin-2-yl)amino)-5-(1-(tetrahydro-2H-pyran-4-yl)-1H-pyrazol-4-yl)pyridin-4-yl)piperidin-3-ol], the negative-log IC50 (pIC50) is at least 8.00. The figure for `COc1cccc(F)c1-c1nccc(Nc2cc(N3CCC[C@H](O)C3)c(-c3ccc(CN4CCC(O)CC4)nc3)cn2)n1` [Example 33, (S)-1-(6-((2-(2-fluoro-6-methoxyphenyl)pyrimidin-4-yl)amino)-6′-((4-hydroxypiperidin-1-yl)methyl)-[3,3′-bipyridin]-4-yl)piperidin-3-ol] is 7.30 to 8.00; for `COc1cccc(F)c1-c1nc(Nc2cc(N3CCC[C@H](N)C3)c(-c3cnn(C4CCOCC4)c3)cn2)ccc1[N+](=O)[O-]` [Example 70, 4-((S)-3-aminopiperidin-1-yl)-N-(6-(2-fluoro-6-methoxyphenyl)-5-nitropyridin-2-yl)-5-(1-(tetrahydro-2H-pyran-4-yl)-1H-pyrazol-4-yl)pyridin-2-amine hydrochloride] it is at least 8.00. As for `COc1cccc(F)c1-c1nc(Nc2cc(N3CCC[C@H](O)C3)c(-c3cnn(C(F)F)c3)cn2)ccc1N` [Example 150, (3S)-1-(2-((5-amino-6-(2-fluoro-6-methoxyphenyl)pyridin-2-yl)amino)-5-(1-(difluoromethyl)-1H-pyrazol-4-yl)pyridin-4-yl)piperidin-3-ol], the pIC50 is at least 8.00. The figure for `COc1cccc(F)c1-c1nccc(Nc2cc(N3CCC[C@H](O)C3)c(-c3cnn(C4CCN(C)CC4)c3)cn2)n1` [Example 15, (S)-1-(2-((2-(2-fluoro-6-methoxyphenyl)pyrimidin-4-yl)amino)-5-(1-(1-methylpiperidin-4-yl)-1H-pyrazol-4-yl)pyridin-4-yl)piperidin-3-ol] is at least 8.00.

For `COCC(C)(C)n1cc(-c2cnc(Nc3ccnc(-c4c(F)cccc4OC)n3)cc2N2CCC[C@H](N)C2)cn1` [Example 244, (S)-N-(4-(3-aminopiperidin-1-yl)-5-(1-(1-methoxy-2-methylpropan-2-yl)-1H-pyrazol-4-yl)pyridin-2-yl)-2-(2-fluoro-6-methoxyphenyl)pyrimidin-4-amine hydrochloride], the pIC50 was at least 8.00.

As for `COc1cccc(F)c1-c1nccc(Nc2cc(N3CCC[C@H](N)C3)c(-c3ccc(F)c(Cl)c3)cn2)n1` [Example 292, (S)-N-(4-(3-aminopiperidin-1-yl)-5-(3-chloro-4-fluorophenyl)pyridin-2-yl)-2-(2-fluoro-6-methoxyphenyl)pyrimidin-4-amine hydrochloride], the negative logarithm of the IC50 (pIC50) is at least 8.00.

As to `COc1cc(F)cc(F)c1-c1nc(Nc2cc(N3CC[C@@H](C)[C@H](N)C3)c(-c3cnn(C(F)F)c3)cn2)ccc1N` [Example 215, N^2-(4-((3S,4R)-3-amino-4-methylpiperidin-1-yl)-5-(1-(difluoromethyl)-1H-pyrazol-4-yl)pyridin-2-yl)-6-(2,4-difluoro-6-methoxyphenyl)pyridin-2,5-diamine hydrochloride], the pIC50 is at least 8.00. The figure for `COc1cccc(F)c1-c1nccc(Nc2cc(N3CCC[C@H](N)C3)c(-c3cnn(C4CCOCC4)c3)cn2)n1` [Example 52, (S)-N-(4-(3-aminopiperidin-1-yl)-5-(1-(tetrahydro-2H-pyran-4-yl)-1H-pyrazol-4-yl)pyridin-2-yl)-2-(2-fluoro-6-methoxyphenyl)pyrimidin-4-amine hydrochloride] is at least 8.00. As to `COc1cccc(F)c1-c1nccc(Nc2cc(N3CCC[C@H](O)C3)c(-c3cccnc3)cn2)n1` [Example 42, (S)-1-(6-((2-(2-fluoro-6-methoxyphenyl)pyrimidin-4-yl)amino)-[3,3′-bipyridin]-4-yl)piperidin-3-ol], the pIC50 was 7.30 to 8.00. In the case of `O=C(c1cnc(Nc2ccnc(-c3cccc(O)c3)n2)cc1N1CCC[C@H](O)C1)C1CC1` [Example 4, (S)-cyclopropyl(6-((2-(3-hydroxyphenyl)pyrimidin-4-yl)amino)-4-(3-hydroxypiperidin-1-yl)pyridin-3-yl)methanone] it was 7.00 to 7.30; in that of `COc1cccc(F)c1-c1nccc(Nc2cc(N3CCC[C@H](N)C3)c(-c3cnn([C@H]4CCOC4)c3)cn2)n1` [Example 298, N-(4-((S)-3-aminopiperidin-1-yl)-5-(1-((S)-tetrahydrofuran-3-yl)-1H-pyrazol-4-yl)pyridin-2-yl)-2-(2-fluoro-6-methoxyphenyl)pyrimidin-4-amine hydrochloride], at least 8.00. The figure for `COc1cccc(F)c1-c1nccc(Nc2cc(N3CCC[C@H](N)C3)c(-c3cnn(CC4CC(F)(F)C4)c3)cn2)n1` [Example 245, (S)-N-(4-(3-aminopiperidin-1-yl)-5-(1-((3,3-difluorocyclobutyl)methyl)-1H-pyrazol-4-yl)pyridin-2-yl)-2-(2-fluoro-6-methoxyphenyl)pyrimidin-4-amine hydrochloride] is at least 8.00; for `COc1cccc(F)c1-c1nc(Nc2cc(N3CC[C@H](F)[C@H](N)C3)c(-c3cnn(C(F)F)c3)cn2)ccc1C#N` [Example 322, 6-((4-((3R,4S)-3-amino-4-fluoropiperidin-1-yl)-5-(1-(difluoromethyl)-1H-pyrazol-4-yl)pyridin-2-yl)amino)-2-(2-fluoro-6-methoxyphenyl)nicotinonitrile hydrochloride] it is at least 8.00. With `COc1cc(CO)cc(F)c1-c1nccc(Nc2cc(N3CCC[C@H](N)C3)c(C#CC3CCOCC3)cn2)n1` [Example 103, (S)-(4-(4-((4-(3-aminopiperidin-1-yl)-5-((tetrahydro-2H-pyran-4-yl)ethynyl)pyridin-2-yl)amino)pyrimidin-2-yl)-3-fluoro-5-methoxyphenyl)methanol hydrochloride], the pIC50 was at least 8.00.

`COc1cccc(F)c1-c1nccc(Nc2cc(N3CCC[C@H](N)C3)c(-c3ccc4c(c3)OCCN4C)cn2)n1` [Example 257, (S)-N-(4-(3-aminopiperidin-1-yl)-5-(4-methyl-3,4-dihydro-2H-benzo[b][1,4]oxazin-7-yl)pyridin-2-yl)-2-(2-fluoro-6-methoxyphenyl)pyrimidin-4-amine hydrochloride]: the pIC50 is at least 8.00.

For the origin of these results see US20260347338A1, “PYRIMIDINE/PYRIDINE DERIVATIVES OR SALTS THEREOF AND PHARMACEUTICAL COMPOSITIONS COMPRISING THE SAME” (YUHAN CORPORATION, priority 2023, published 2026).
